Test results as given in US20200331904A1, “3-AMINO-[1,2,4]-TRIAZOLE DERIVATIVES AND THEIR USE FOR CONTROLLING UNDESIRED PLANT GROWTH” (Bayer CropScience Aktiengesellschaft, priority 2017, published 2020).

What was measured:
Type in all cases: in vivo
Echinochloa crus-galli [1] = assay: Pre-emergence herbicidal efficacy, ECHCG; details: Table B1, application rate 320 g/ha, scored visually after about 3 weeks vs untreated controls
Method in brief: (§1)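 Visual percent activity relative to untreated plants (0% = like control, 100% = dead), scored about 3 weeks after treatment under greenhouse conditions.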

Lolium rigidum = assay: Pre-emergence herbicidal efficacy, LOLRI; details: Table B1, application rate 320 g/ha, scored visually after about 3 weeks vs untreated controls
Method in brief: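 Seeds sown in pots and covered with soil. Greenhouse-grown about 3 weeks, then visually scored as % activity vs untreated controls (100% = dead, 0% = like control).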

Setaria viridis = assay: Pre-emergence herbicidal efficacy, SETVI; details: Table B1, application rate 320 g/ha, scored visually after about 3 weeks vs untreated controls
Method in brief: as §1

Abutilon theophrasti = assay: Pre-emergence herbicidal efficacy, ABUTH; details: Table B1, application rate 320 g/ha, scored visually after about 3 weeks vs untreated controls
Method in brief: as §1

Amaranthus retroflexus [2] = assay: Pre-emergence herbicidal efficacy, AMARE; details: Table B1, application rate 320 g/ha, scored visually after about 3 weeks vs untreated controls
Method in brief: as §1

Matricaria inodora = assay: Pre-emergence herbicidal efficacy, MATIN; details: Table B1, application rate 320 g/ha, scored visually after about 3 weeks vs untreated controls
Method in brief: as §1

Polygonum convolvulus = assay: Pre-emergence herbicidal efficacy, POLCO; details: Table B1, application rate 320 g/ha, scored visually after about 3 weeks vs untreated controls
Method in brief: as §1

Stellaria media [3] = assay: Pre-emergence herbicidal efficacy, STEME; details: Table B1, application rate 320 g/ha, scored visually after about 3 weeks vs untreated controls
Method in brief: as §1

Viola tricolor [4] = assay: Pre-emergence herbicidal efficacy, VIOTR; details: Table B1, application rate 320 g/ha, scored visually after about 3 weeks vs untreated controls
Method in brief: as §1

Veronica persica [5] = assay: Pre-emergence herbicidal efficacy, VERPE; details: Table B1, application rate 320 g/ha, scored visually after about 3 weeks vs untreated controls
Method in brief: as §1

Echinochloa crus-galli [6] = assay: Post-emergence herbicidal efficacy, ECHCG; details: application rate 320 g/ha, rated visually after about 3 weeks
Text: (§2) ABUTH: Abutilon theophrasti ALOMY: Alopecurus myosuroides AMARE: Amaranthus retroflexus AVEFA: Avena fatua CYPES: Cyperus esculentus ECHCG: Echinochloa crus-galli LOLMU: Lolium multiflorum MATIN: Matricaria inodora PHBPU: Ipomoea purpurea POLCO: Polygonum convolvulus SETVI: Setaria viridis STEME: Stellaria media VERPE: Veronica persica VTOTR: Viola tricolor
(§3) C.2 Post-Emergence Herbicidal Action and Crop Plant Compatibility
(§4) Seeds of monocotyledonous and dicotyledonous weeds and crop plants are placed in sandy loam in plastic or organic planting pots, covered with soil and cultivated in a greenhouse under controlled growth conditions. 2 to 3 weeks after sowing, the test plants are treated at the one-leaf stage. The compounds of the invention, formulated in the form of wettable powders (WP) or as emulsion concentrates (EC), are then sprayed onto the green parts of the plants as aqueous suspension or emulsion with addition of 0.5% additive at a water application rate of […] (converted). After the test plants had been kept in the greenhouse under optimum growth conditions for about 3 weeks, the activity of the preparations is rated visually in comparison to untreated controls. For example, 100% activity=the plants have died, 0% activity=like control plants.

Amaranthus retroflexus [7] = assay: Post-emergence herbicidal efficacy, AMARE; details: application rate 320 g/ha, rated visually after about 3 weeks
Text: as §2, §3, §4

Stellaria media [8] = assay: Post-emergence herbicidal efficacy, STEME; details: application rate 320 g/ha, rated visually after about 3 weeks
Text: as §2, §3, §4

Viola tricolor [9] = assay: Post-emergence herbicidal efficacy, VIOTR; details: application rate 320 g/ha
Text: as §2, §3, §4

Veronica persica [10] = assay: Post-emergence herbicidal efficacy, VERPE; details: application rate 320 g/ha
Text: as §2, §3, §4

[11] = rated visually after about 3 weeks (Table B5)
[12] = rated visually after about 3 weeks (Table B7)

| SMILES | Herbicidal efficacy against ECHCG (Echinochloa crus-galli [1]) | Herbicidal efficacy against LOLRI (Lolium rigidum) | Herbicidal efficacy against SETVI (Setaria viridis) | Herbicidal efficacy against ABUTH (Abutilon theophrasti) | Herbicidal efficacy against AMARE (Amaranthus retroflexus [2]) | Herbicidal efficacy against MATIN (Matricaria inodora) | Herbicidal efficacy against POLCO (Polygonum convolvulus) | Herbicidal efficacy against STEME (Stellaria media [3]) | Herbicidal efficacy against VIOTR (Viola tricolor [4]) | Herbicidal efficacy against VERPE (Veronica persica [5]) | Herbicidal efficacy against ECHCG (Echinochloa crus-galli [6]) | Herbicidal efficacy against AMARE (Amaranthus retroflexus [7]) | Herbicidal efficacy against STEME (Stellaria media [8]) | Herbicidal efficacy against VIOTR (Viola tricolor [9]; [11]) | Herbicidal efficacy against VERPE (Veronica persica [10]; [11]) | Herbicidal efficacy against VIOTR (Viola tricolor [9]; [12]) | Herbicidal efficacy against VERPE (Veronica persica [10]; [12]) |
| --- | --- | --- | --- | --- | --- | --- | --- | --- | --- | --- | --- | --- | --- | --- | --- | --- | --- |
| c1ccc2c(c1)CCC[C@H]2Nc1nc2n(n1)CCCCS2 [Example I-355] | 100% | 80% | 100% | 100% | 100% | 100% | 100% | 100% | 100% | 100% | 100% | 80% | 100% | 80% | 80% | – | – |
| Cc1ccc2c(c1)[C@H](Nc1nc3n(n1)CCN(S(C)(=O)=O)C3)[C@@H](C)C2 [Example I-190] | 100% | 100% | 100% | 100% | 100% | 100% | 100% | 100% | 100% | 100% | – | – | – | – | – | 80% | 80% |
| Cc1ccc2c(c1)[C@H](Nc1nc3n(n1)CCCCS3)CCC2 [Example I-402] | 100% | 100% | 100% | 100% | 100% | 100% | 100% | 100% | 100% | 100% | 100% | 90% | 90% | 90% | 90% | – | – |
| Cc1ccc2c(c1)C(Nc1nc3n(n1)CCCC[S+]3[O-])CC2 (stereo not drawn) [Example I-245] | 100% | 100% | 100% | 100% | 100% | 100% | 100% | 100% | 100% | 100% | – | – | – | – | – | 80% | 90% |
| CC(=O)N1CCn2nc(NC3c4cc(C)ccc4CC3C)nc2C1 (stereo not drawn) [Example I-165] | 100% | 100% | 100% | 100% | 100% | 100% | 100% | 100% | 100% | 100% | – | – | – | – | – | 80% | 90% |
| Cc1ccc2c(c1)C(Nc1nc3n(n1)CCC(=O)N3C)CC2 (stereo not drawn) [Example I-227] | 100% | 100% | 100% | 100% | 100% | 100% | 100% | 100% | 100% | 100% | – | – | – | – | – | 90% | 100% |
| Cc1ccc2c(c1)[C@H](Nc1nc3n(n1)CCN(S(=O)(=O)C1CC1)C3)CCC2 [Example I-200] | 100% | 100% | 100% | 100% | 100% | 100% | 100% | 100% | 100% | 100% | – | – | – | – | – | 80% | 100% |
| CC(=O)N1CCn2nc(N[C@@H]3CCCc4ccccc43)nc2C1 [Example I-163] | 100% | 80% | 100% | 100% | 100% | 100% | 100% | 100% | 100% | 100% | – | – | – | – | – | 80% | 90% |
| Cc1ccc2c(c1)[C@H](Nc1nc3n(n1)CCN(S(C)(=O)=O)C3)CCC2 [Example I-198] | 90% | 100% | 90% | 100% | 100% | 100% | 100% | 100% | 100% | 100% | – | – | – | – | – | 80% | 90% |
| CC(=O)N1CCn2nc(N[C@@H]3CCc4ccc(C)cc43)nc2C1 [Example I-173] | 100% | 100% | 100% | 100% | 100% | 100% | 100% | 100% | 100% | 100% | – | – | – | – | – | 80% | 90% |
